Experiments:
[1] = Storage stability of chlorin e6 in aqueous solutions with or without human serum albumin, measured by analytical HPLC; assay type: physicochemical; settings: for residual active ingredient content / residual active ingredient content (HPLC area) / residual active ingredient content compared with 5 wt. % HSA / residual content of chlorin e6 (HPLC area) / residual chlorin e6 (HPLC area): 30° C.; for residual active ingredient content / residual active ingredient content (HPLC area): 5 wt. % HSA; for residual active ingredient content: all three pH values (7.0, 7.5, 8.0); for residual active ingredient content compared with 5 wt. % HSA: 10 wt. % HSA, pH 7 and pH 7.5; for residual content of chlorin e6 (HPLC area): 20 wt. % HSA; for residual content of chlorin e6 (mean) / residual active ingredient content (mean) / residual active ingredient content (HPLC area, mean) / residual active ingredient content (bound) / residual chlorin e6 (HPLC area, mean): 5° C.; for residual content of chlorin e6 (mean): pH 8.0, 1.25 wt. % HSA; for residual active ingredient content (mean): pH 8.0, 2.5 wt. % HSA; for residual active ingredient content (HPLC area, mean) / residual active ingredient content (bound): pH 8.0, 5 wt. % HSA; for residual chlorin e6 (HPLC area, mean): pH 8.0, pure buffer
Method: In order to determine the stability of a composition comprising chlorin e6 and an albumin, three buffer solutions with pH values of 7.0, 7.5 and 8.0, each of which contained potassium dihydrogen phosphate (Merck) and disodium hydrogen phosphate (Merck) as buffer salts, were prepared and sterilised.
Starting from a 20 wt. % stock solution of human serum albumin (Biotest AG), dilute solutions comprising 10 wt. %, 5 wt. % and 0 wt. % human serum albumin were then prepared by means of the above buffer solutions. For the buffering of the 20 wt. % stock solution of human serum albumin, the buffer salts were added in the form of solids directly to 20 ml aliquots of the stock solution.
Thereafter, 2 ml of each of the various buffered solutions were introduced into brown glass bottles with crimped caps, and 40 μl of a 75 mM solution of chlorin e6 sodium salt (ORPEGEN Peptide Chemicals GmbH) in water were added thereto. In this manner there were prepared aqueous solutions of chlorin e6 sodium salt having a concentration of 0 wt. %, 1.25 wt. %, 2.5 wt. %, 5 wt. %, 10 wt. % and 20 wt. % human serum albumin which had pH values of 7.0, 7.5 and 8.0. For the purpose of reproducibility of the results, the individual solutions were each made up several times.
The solutions were re-packaged in a light-tight manner and incubated at 30° C. in a drying cabinet or at 5° C. in a refrigerator. […] Maisch GmbH); eluant: 80 mM triethylammonium phosphate buffer pH 2.25/acetonitrile). The extent of the decomposition of chlorin e6 was calculated in each case by comparing the areas under the peak belonging to chlorin e6 in the HPLC diagram before and after storage.

[2] = 48 hours after administration; cited from earlier work

Structure (SMILES): C=Cc1c(C)c2cc3nc(c(CC(=O)O)c4[nH]c(cc5nc(cc1[nH]2)C(C)=C5CC)c(C)c4C(=O)O)[C@@H](CCC(=O)O)[C@@H]3C [chlorin e6]
- residual active ingredient content ([1]; 4 weeks): > 95%
- residual active ingredient content (HPLC area) ([1]; 4 weeks, pH 7.0): 95.3 % area
- residual active ingredient content (HPLC area) ([1]; 4 weeks, pH 7.5): 97.5 % area
- residual active ingredient content (HPLC area) ([1]; 4 weeks, pH 8.0): 98.6 % area
- residual active ingredient content compared with 5 wt. % HSA ([1]; 4 weeks): slightly higher
- residual content of chlorin e6 (HPLC area) ([1]; 4 weeks, pH 7.0): 94.6 % area
- residual content of chlorin e6 (HPLC area) ([1]; 4 weeks, pH 7.5): 96.4 % area
- residual content of chlorin e6 (HPLC area) ([1]; 4 weeks, pH 8.0): 96.6 % area
- residual chlorin e6 (HPLC area) ([1]; 4 weeks, pure buffer, no HSA, pH 7.0): 1.9 % area
- residual chlorin e6 (HPLC area) ([1]; 4 weeks, pure buffer, no HSA, pH 7.5): 2.4 % area
- residual chlorin e6 (HPLC area) ([1]; 4 weeks, pure buffer, no HSA, pH 8.0): 3.6 % area
- residual content of chlorin e6 (mean) ([1]; 6 months): approximately 83.6%
- residual active ingredient content (mean) ([1]; 6 months): approximately 96.6%
- residual active ingredient content (HPLC area, mean) ([1]; 6 months): 97.9 % area
- residual active ingredient content (bound) ([1]; 6 months): > 97%
- residual chlorin e6 (HPLC area, mean) ([1]; 6 months, no HSA): 1.1 % area
- residual content of chlorin e6 (mean) ([1]; 9 months): approximately 84.9%
- residual active ingredient content (mean) ([1]; 9 months): approximately 93.8%
- residual active ingredient content (HPLC area, mean) ([1]; 9 months): 96.4 % area
- residual active ingredient content (bound) ([1]; 9 months): > 96%
- residual chlorin e6 (HPLC area, mean) ([1]; 9 months, no HSA): 1.74 % area
- residual active ingredient content ([1]; 10 weeks): > 94%
- residual active ingredient content (HPLC area) ([1]; 10 weeks, pH 7.0): 94.1 % area
- residual active ingredient content (HPLC area) ([1]; 10 weeks, pH 7.5): 96.0 % area
- residual active ingredient content (HPLC area) ([1]; 10 weeks, pH 8.0): 97.8 % area
- residual active ingredient content compared with 5 wt. % HSA ([1]; 10 weeks): slightly higher
- residual content of chlorin e6 (HPLC area) ([1]; 10 weeks, pH 7.0): 91.9 % area
- residual content of chlorin e6 (HPLC area) ([1]; 10 weeks, pH 7.5): 94.0 % area
- residual content of chlorin e6 (HPLC area) ([1]; 10 weeks, pH 8.0): 95.9 % area
- residual chlorin e6 (HPLC area) ([1]; 10 weeks, pure buffer, no HSA, pH 7.0): 0 % area
- residual chlorin e6 (HPLC area) ([1]; 10 weeks, pure buffer, no HSA, pH 7.5): 0.52 % area
- residual chlorin e6 (HPLC area) ([1]; 10 weeks, pure buffer, no HSA, pH 8.0): 0.89 % area
- residual content of chlorin e6 (mean) ([1]; 12 months): approximately 69.5%
- residual active ingredient content (mean) ([1]; 12 months): approximately 93.6%
- residual active ingredient content (HPLC area, mean) ([1]; 12 months): 96.7 % area
- residual active ingredient content (bound) ([1]; 12 months): > 96%
- residual chlorin e6 (HPLC area, mean) ([1]; 12 months, no HSA): 0.26 % area
- residual chlorin e6 (HPLC area) ([1]; 4 days, addition of Na caprylate or N-acetyl-DL-tryptophan, no human serum albumin): 68.8 % area
- residual chlorin e6 (HPLC area) ([1]; 4 days, buffer solution pH 8, 5 wt. % human serum albumin): 97.8 % area
- residual chlorin e6 (HPLC area) ([1]; 4 days, non-buffered solution adjusted to pH 7, 5% human serum albumin): 97.0 % area
- residual chlorin e6 (HPLC area) ([1]; 4 days, pure buffer solution pH 8, no human serum albumin): 59.1 % area
- storage life of aqueous solution of chlorin e6 with human serum albumin ([1]; storage at 2 to 8° C., extrapolated from data of FIGS. 1 to 6): at least 12 months
- active substance detectable in the human organism [2]: only traces

Source: US9242006B2, “Composition of chlorin e6 stabilized within albumin for the photodynamic diagnosis and therapy of tumors” (APOCARE PHARMA GMBH, priority 2011, dated 2016)
